Test results: the supplement of paper PMC10307832

Key:
Test in all cases: relative viability (nuclei count vs DMSO), 5 days (fraction); higher = more cells survive
[1] = system: A-427
Summary of the method: (§1)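 Lung cancer cell lines in 1536-well plates were dosed by pin tool the day after seeding, either with one drug alone or with a fixed anchor-drug dose plus five library-drug doses (not always all listed) in √10 steps. After 5 days, cells were fixed and their nuclei stained in one step (final 0.05% Triton X-100, 1% formaldehyde, 1 ug/ml Hoechst), then counted on 4× images. Relative viability is the nuclei count in treated wells divided by that in vehicle wells. Values are medians of duplicate plates.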

[2] = system: ABC-1
Summary of the method: as §1

[3] = system: COR-L23
Summary of the method: as §1

[4] = system: EMC-BAC-2
Summary of the method: as §1

[5] = system: HARA
Summary of the method: as §1

[6] = system: HOP-62
Summary of the method: as §1

[7] = system: LK-2
Summary of the method: as §1

[8] = system: LXF-289
Summary of the method: as §1

[9] = system: NCI-H1792
Summary of the method: as §1

[10] = system: NCI-H1793
Summary of the method: as §1

[11] = system: NCI-H1944
Summary of the method: as §1

[12] = system: NCI-H1993
Summary of the method: as §1

[13] = system: NCI-H2009
Summary of the method: as §1

[14] = system: NCI-H2228
Summary of the method: as §1

[15] = system: NCI-H3122
Summary of the method: as §1

[16] = system: NCI-H596
Summary of the method: as §1

[17] = system: NCI-H727
Summary of the method: as §1

[18] = system: PC-3 [JPC-3]
Summary of the method: as §1

[19] = system: SK-LU-1
Summary of the method: as §1

[20] = system: SK-MES-1
Summary of the method: as §1

[21] = system: SW 1573
Summary of the method: as §1

Q: Which results are given for `NC(=O)Nc1cc(-c2cccc(F)c2)sc1C(=O)N[C@H]1CCCNC1` [AZD7762] + C[C@]1(O)C[C@@H](c2nc(-c3ccc4ccc(-c5ccccc5)nc4c3)c3c(N)nccn32)C1 [Linsitinib] (partner 1 µM)?
A: relative viability ([1]; first compound 0.01 µM): 1.13; relative viability ([1]; first compound 0.03162 µM): 1.18; relative viability ([1]; first compound 0.1 µM): 1.22; relative viability ([1]; first compound 0.3162 µM): 1.13; relative viability ([1]; first compound 1 µM): 0.976; relative viability ([2]; first compound 0.01 µM): 1.08; relative viability ([2]; first compound 0.03162 µM): 0.839; relative viability ([2]; first compound 0.1 µM): 0.925; relative viability ([2]; first compound 0.3162 µM): 0.409; relative viability ([2]; first compound 1 µM): 0.278; relative viability ([3]; first compound 0.01 µM): 1.11; relative viability ([3]; first compound 0.03162 µM): 0.916; relative viability ([3]; first compound 0.1 µM): 0.98; relative viability ([3]; first compound 0.3162 µM): 0.799; relative viability ([3]; first compound 1 µM): 0.18; relative viability ([4]; first compound 0.01 µM): 0.795; relative viability ([4]; first compound 0.03162 µM): 0.806; relative viability ([4]; first compound 0.1 µM): 0.799; relative viability ([4]; first compound 0.3162 µM): 0.799; relative viability ([4]; first compound 1 µM): 0.809; relative viability ([5]; first compound 0.01 µM): 0.961; relative viability ([5]; first compound 0.03162 µM): 0.934; relative viability ([5]; first compound 0.1 µM): 0.847; relative viability ([5]; first compound 0.3162 µM): 0.854; relative viability ([5]; first compound 1 µM): 0.617; relative viability ([6]; first compound 0.01 µM): 1.04; relative viability ([6]; first compound 0.03162 µM): 1.09; relative viability ([6]; first compound 0.1 µM): 1.32; relative viability ([6]; first compound 0.3162 µM): 0.891; relative viability ([6]; first compound 1 µM): 0.987; relative viability ([7]; first compound 0.01 µM): 0.691; relative viability ([7]; first compound 0.03162 µM): 0.597; relative viability ([7]; first compound 0.1 µM): 0.618; relative viability ([7]; first compound 0.3162 µM): 0.645; relative viability ([7]; first compound 1 µM): 0.308; relative viability ([8]; first compound 0.01 µM): 0.957; relative viability ([8]; first compound 0.03162 µM): 0.938; relative viability ([8]; first compound 0.1 µM): 1.01; relative viability ([8]; first compound 0.3162 µM): 1.03; relative viability ([8]; first compound 1 µM): 1.06; relative viability ([9]; first compound 0.01 µM): 0.604; relative viability ([9]; first compound 0.03162 µM): 0.588; relative viability ([9]; first compound 0.1 µM): 0.624; relative viability ([9]; first compound 0.3162 µM): 0.599; relative viability ([9]; first compound 1 µM): 0.707; relative viability ([10]; first compound 0.01 µM): 1.05; relative viability ([10]; first compound 0.03162 µM): 0.82; relative viability ([10]; first compound 0.1 µM): 0.994; relative viability ([10]; first compound 0.3162 µM): 0.801; relative viability ([10]; first compound 1 µM): 0.358; relative viability ([11]; first compound 0.01 µM): 1.19; relative viability ([11]; first compound 0.03162 µM): 1.26; relative viability ([11]; first compound 0.1 µM): 1.35; relative viability ([11]; first compound 0.3162 µM): 1.25; relative viability ([11]; first compound 1 µM): 1.14; relative viability ([12]; first compound 0.01 µM): 0.743; relative viability ([12]; first compound 0.03162 µM): 0.678; relative viability ([12]; first compound 0.1 µM): 0.666; relative viability ([12]; first compound 0.3162 µM): 0.73; relative viability ([12]; first compound 1 µM): 0.717; relative viability ([13]; first compound 0.01 µM): 1.32; relative viability ([13]; first compound 0.03162 µM): 1.18; relative viability ([13]; first compound 0.1 µM): 1.27; relative viability ([13]; first compound 0.3162 µM): 1.22; relative viability ([13]; first compound 1 µM): 0.752; relative viability ([14]; first compound 0.01 µM): 0.792; relative viability ([14]; first compound 0.03162 µM): 0.478; relative viability ([14]; first compound 0.1 µM): 0.734; relative viability ([14]; first compound 0.3162 µM): 0.289; relative viability ([14]; first compound 1 µM): 0.242; relative viability ([15]; first compound 0.01 µM): 1.02; relative viability ([15]; first compound 0.03162 µM): 0.986; relative viability ([15]; first compound 0.1 µM): 1.05; relative viability ([15]; first compound 0.3162 µM): 0.868; relative viability ([15]; first compound 1 µM): 1.12; relative viability ([16]; first compound 0.01 µM): 1.04; relative viability ([16]; first compound 0.03162 µM): 1.04; relative viability ([16]; first compound 0.1 µM): 1.03; relative viability ([16]; first compound 0.3162 µM): 1.1; relative viability ([16]; first compound 1 µM): 0.923; relative viability ([17]; first compound 0.01 µM): 0.282; relative viability ([17]; first compound 0.03162 µM): 0.333; relative viability ([17]; first compound 0.1 µM): 0.311; relative viability ([17]; first compound 0.3162 µM): 0.219; relative viability ([17]; first compound 1 µM): 0.118; relative viability ([18]; first compound 0.01 µM): 0.929; relative viability ([18]; first compound 0.03162 µM): 0.966; relative viability ([18]; first compound 0.1 µM): 0.999; relative viability ([18]; first compound 0.3162 µM): 0.987; relative viability ([18]; first compound 1 µM): 0.927; relative viability ([19]; first compound 0.01 µM): 1.1; relative viability ([19]; first compound 0.03162 µM): 0.804; relative viability ([19]; first compound 0.1 µM): 0.358; relative viability ([19]; first compound 0.3162 µM): 0.218; relative viability ([19]; first compound 1 µM): 0.251; relative viability ([20]; first compound 0.01 µM): 1.06; relative viability ([20]; first compound 0.03162 µM): 1.12; relative viability ([20]; first compound 0.1 µM): 1.11; relative viability ([20]; first compound 0.3162 µM): 1.04; relative viability ([20]; first compound 1 µM): 0.414; relative viability ([21]; first compound 0.01 µM): 0.843; relative viability ([21]; first compound 0.03162 µM): 0.989; relative viability ([21]; first compound 0.1 µM): 0.99; relative viability ([21]; first compound 0.3162 µM): 0.891; relative viability ([21]; first compound 1 µM): 0.752
